According to patent US6643591B1, “Use of computational and experimental data to model organic compound reactivity in cytochrome P450 mediated reactions and to optimize the design of pharmaceuticals” (University of Pittsburgh, priority 1998, dated 2003):
Values joined by “and” are separate entries in the source; they are usually repeats but may differ in a detail not shown here. Identical values can stand only once. Like-named read-outs stand apart in the source and are kept apart here. Marks after values point to notes of the source that are not given here.

Experiments:
CYP1A2 [1] = conditions: O-deethylation favored; cited from earlier work
CYP [2] = experiment: Experimental product ratios for aromatic oxidation
Source text: These equations may be solved with the data in Table 4, which provides experimental data for aromatic oxidation reactions with a number of substrates.
Experimental metabolite ratios may also be used to parameterize the aromatic oxidation reaction in a theoretical model for CYP reactions. As with hydrogen atom abstraction discussed in the previous Examples, experimental ratios of aromatic oxidation to an alternate position may be determined using various CYP enzymes. These substrates were chosen based on their small size, the presence of an alternate position for metabolism, and their hydrophobicity.
In order for the substrates to be useful, the average of the rotation rates in the active sites should be rapid. […] Several human expressed CYP enzymes were used in these studies, including CYP1A1, 1A2, 2A6, 2B6, 2C8, 2C9, 2D6, 2E1, 3A4, and 3A5. The use of multiple enzymes insures that a reasonable average of any orientation preferences within the active site (see FIG. 1).

CYP [3] = conditions: cited from earlier work
CYP2B1 = target: T1, CYP2B1 (Rattus norvegicus, UniProt P00176)
T1 sequence (P00176 1-491): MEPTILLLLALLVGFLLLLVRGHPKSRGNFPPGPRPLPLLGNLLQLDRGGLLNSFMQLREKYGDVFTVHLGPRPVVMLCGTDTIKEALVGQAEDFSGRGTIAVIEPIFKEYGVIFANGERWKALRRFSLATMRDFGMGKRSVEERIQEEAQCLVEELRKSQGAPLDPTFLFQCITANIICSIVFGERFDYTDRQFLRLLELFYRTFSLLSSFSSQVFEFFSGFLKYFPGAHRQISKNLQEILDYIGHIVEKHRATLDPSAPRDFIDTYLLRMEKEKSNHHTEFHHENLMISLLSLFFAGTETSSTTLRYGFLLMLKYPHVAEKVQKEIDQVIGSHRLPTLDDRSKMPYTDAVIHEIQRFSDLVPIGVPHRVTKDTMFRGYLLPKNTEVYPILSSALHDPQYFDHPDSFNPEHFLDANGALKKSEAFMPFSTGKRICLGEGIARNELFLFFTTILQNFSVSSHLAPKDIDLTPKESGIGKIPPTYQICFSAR

CYP1A2 [4] = target: T2, CYP1A2 (Homo sapiens, UniProt P05177)
T2 sequence (P05177 1-516): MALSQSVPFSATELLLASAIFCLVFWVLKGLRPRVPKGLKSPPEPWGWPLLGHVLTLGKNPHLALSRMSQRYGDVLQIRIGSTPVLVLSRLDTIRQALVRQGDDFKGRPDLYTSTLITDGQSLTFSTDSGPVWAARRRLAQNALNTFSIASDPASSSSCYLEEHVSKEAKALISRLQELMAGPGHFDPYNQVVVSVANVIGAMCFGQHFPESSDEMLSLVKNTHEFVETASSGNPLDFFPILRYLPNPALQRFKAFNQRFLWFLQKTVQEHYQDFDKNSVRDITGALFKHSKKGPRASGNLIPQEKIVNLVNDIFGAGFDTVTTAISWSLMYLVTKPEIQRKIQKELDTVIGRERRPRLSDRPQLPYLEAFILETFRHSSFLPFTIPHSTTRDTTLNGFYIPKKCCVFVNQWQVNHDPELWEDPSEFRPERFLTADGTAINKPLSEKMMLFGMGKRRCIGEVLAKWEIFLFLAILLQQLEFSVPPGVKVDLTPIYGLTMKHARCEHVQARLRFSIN

CYP2E1 = CYP2E1 (Homo sapiens, UniProt P05181)
Chain of CYP2E1 (P05181 whole entry): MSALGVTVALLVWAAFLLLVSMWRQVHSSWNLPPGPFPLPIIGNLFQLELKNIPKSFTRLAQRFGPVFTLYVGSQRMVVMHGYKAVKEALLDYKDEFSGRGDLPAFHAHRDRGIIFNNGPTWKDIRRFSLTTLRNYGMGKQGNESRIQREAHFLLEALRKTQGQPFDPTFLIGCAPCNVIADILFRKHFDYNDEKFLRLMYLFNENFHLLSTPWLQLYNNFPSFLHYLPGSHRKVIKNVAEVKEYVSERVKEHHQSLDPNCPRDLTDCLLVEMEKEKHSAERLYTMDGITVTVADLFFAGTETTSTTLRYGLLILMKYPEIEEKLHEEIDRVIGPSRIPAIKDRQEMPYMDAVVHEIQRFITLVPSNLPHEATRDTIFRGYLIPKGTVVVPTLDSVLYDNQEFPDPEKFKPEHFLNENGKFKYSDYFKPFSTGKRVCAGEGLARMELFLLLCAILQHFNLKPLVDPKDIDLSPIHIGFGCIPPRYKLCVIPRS

CYP2C9 = CYP2C9 (Homo sapiens, UniProt P11712)
Chain of CYP2C9 (P11712 whole entry): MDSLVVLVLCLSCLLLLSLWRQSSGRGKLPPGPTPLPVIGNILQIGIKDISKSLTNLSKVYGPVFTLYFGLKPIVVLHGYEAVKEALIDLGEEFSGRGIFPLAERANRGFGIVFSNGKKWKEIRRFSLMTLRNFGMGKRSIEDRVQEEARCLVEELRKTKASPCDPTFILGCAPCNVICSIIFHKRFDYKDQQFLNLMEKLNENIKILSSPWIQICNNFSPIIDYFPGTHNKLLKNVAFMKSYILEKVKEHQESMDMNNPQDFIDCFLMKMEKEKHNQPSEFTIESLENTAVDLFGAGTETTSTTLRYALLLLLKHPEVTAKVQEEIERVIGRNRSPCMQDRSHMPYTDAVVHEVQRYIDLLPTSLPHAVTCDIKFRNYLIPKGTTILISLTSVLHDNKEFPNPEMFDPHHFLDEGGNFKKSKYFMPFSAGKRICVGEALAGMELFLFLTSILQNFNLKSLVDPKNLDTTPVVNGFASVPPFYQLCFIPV

P450cam = target: T3, P450cam (Pseudomonas putida, UniProt P00183); experiment: Intramolecular isotope effects with purified P450cam; type: in vitro ADME, bacterial; conditions: benzylic hydroxylation, -CH2D (d1) substrate
T3 construct: made in house
T3 sequence (P00183 2-415): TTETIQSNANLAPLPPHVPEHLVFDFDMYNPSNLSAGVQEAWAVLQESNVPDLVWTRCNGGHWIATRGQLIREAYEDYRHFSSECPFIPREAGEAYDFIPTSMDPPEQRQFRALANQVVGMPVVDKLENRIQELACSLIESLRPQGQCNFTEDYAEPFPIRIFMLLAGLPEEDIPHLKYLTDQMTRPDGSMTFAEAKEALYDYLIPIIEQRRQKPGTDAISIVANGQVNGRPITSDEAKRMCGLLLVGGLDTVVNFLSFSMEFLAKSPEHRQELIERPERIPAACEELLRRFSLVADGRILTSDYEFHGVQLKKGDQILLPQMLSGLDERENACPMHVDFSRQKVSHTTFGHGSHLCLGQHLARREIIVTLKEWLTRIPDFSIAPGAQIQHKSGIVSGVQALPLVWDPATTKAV
Experimental: For the intramolecular isotope effect experiments herein, a substrate is chosen that contains at least two symmetrical sites, with at least one site, but not all, isotopically labeled. A single concentration of substrate is incubated with enzyme, and the ratio of labeled to unlabeled compound in the isotopic mixture of products (or the corresponding rates of formation of products) are used to calculate a KIE.
Construction of expression plasmids for P450cam, Pd, and PdR as well as protein expression and purification have been described previously (Shimoji et al. (1998) Biochemistry 37, 8848-52).
Enzyme incubations with monodeuterated toluenes and p-xylene-α-^2H1-α′-^2H1 were performed in triplicate at a single substrate concentration of 0.25 mM. […] The kinetic parameters for metabolism of the substituted toluenes were determined by GC-MS analysis of the M-(dimethylsilyl) derivative of the product benzyl alcohols (see below).

CYP [5] = experiment: Activation energy differences from experimental regioselectivity of substrates in rapid equilibrium; type: in vitro ADME; parameters: unit not given here; conditions: difference in activation energy calculated by the experimental regioselectivity
Source text: Five substrates shown to undergo rapid equilibrium between positions of metabolism have been used to prepare data for regression and then correlation with Eq. 1. The differences in activation energy calculated by the experimental regioselectivity of the substrates, along with the differences in AM1 activation enthalpies, are given in Table 1. Regression of the experimental data gives a slope correction for AM1 activation energies of 0.75±0.20.

CYP4B1 = CYP4B1 (Oryctolagus cuniculus, UniProt P15128)
Chain of CYP4B1 (P15128 whole entry): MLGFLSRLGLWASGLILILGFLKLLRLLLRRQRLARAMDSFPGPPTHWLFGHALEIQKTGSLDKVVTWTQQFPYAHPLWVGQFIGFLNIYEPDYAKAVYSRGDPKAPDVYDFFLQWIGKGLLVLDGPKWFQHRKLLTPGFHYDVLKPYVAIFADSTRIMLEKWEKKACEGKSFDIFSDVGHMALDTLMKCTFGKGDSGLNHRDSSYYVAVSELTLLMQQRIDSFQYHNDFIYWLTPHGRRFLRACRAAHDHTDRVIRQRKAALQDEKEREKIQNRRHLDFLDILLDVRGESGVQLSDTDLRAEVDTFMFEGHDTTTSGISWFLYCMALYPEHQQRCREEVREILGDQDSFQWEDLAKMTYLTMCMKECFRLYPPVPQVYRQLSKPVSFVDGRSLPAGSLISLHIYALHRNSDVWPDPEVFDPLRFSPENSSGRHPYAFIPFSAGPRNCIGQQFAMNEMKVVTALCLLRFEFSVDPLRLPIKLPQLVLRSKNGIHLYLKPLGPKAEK

CYP2B6 = target: T4, CYP2B6 (Homo sapiens, UniProt P20813)
T4 sequence (P20813 1-491): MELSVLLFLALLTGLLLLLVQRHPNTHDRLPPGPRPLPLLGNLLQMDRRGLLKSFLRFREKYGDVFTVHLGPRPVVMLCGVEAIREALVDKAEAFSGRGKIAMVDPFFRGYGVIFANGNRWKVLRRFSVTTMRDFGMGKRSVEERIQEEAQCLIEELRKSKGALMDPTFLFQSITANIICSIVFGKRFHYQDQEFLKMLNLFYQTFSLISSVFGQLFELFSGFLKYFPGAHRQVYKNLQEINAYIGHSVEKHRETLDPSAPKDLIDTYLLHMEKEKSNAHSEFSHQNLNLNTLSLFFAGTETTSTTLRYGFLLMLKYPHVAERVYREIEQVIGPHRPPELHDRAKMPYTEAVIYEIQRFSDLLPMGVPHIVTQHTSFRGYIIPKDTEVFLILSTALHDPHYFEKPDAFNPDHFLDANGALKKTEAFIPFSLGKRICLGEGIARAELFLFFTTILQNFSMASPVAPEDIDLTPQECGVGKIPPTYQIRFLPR

In the case of `CCOc1ccc2ccc(=O)oc2c1` [7-ethoxycoumarin], the “Energy difference between O-deethylation and aromatic hydroxylation pathways” value (CYP1A2 [1]) is given as “about 1.8 kcal/mol”.
In the case of `COc1ccccc1` [Anisole], the “Experimental Ratio” value (CYP [2]; human) is given as 10.6, the “Relative difference in energy for p-hydroxylation and demethylation” value (CYP [3]; calculated from the product ratios of Lindsay Smith et al.) is given as 0.6 kcal/mol and the “Intermolecular isotope effect (Lindsay Smith et al.)” value (CYP [3]; deuteration of the methyl group) is given as 7. The “Ratio of p-hydroxyanisole to phenol, average” value (CYP [3]; four microsomal systems (Lindsay Smith)) was 2.9.
In the case of `Cc1ccc(Br)cc1` [Br, p-bromotoluene], the “Intramolecular KIE (kH/kD)” value (CYP2B1) was 8.02, the “Intramolecular KIE (kH/kD)” value (CYP1A2 [4]; pH 7.4) was 6.83 (8) and the “Intermolecular Noncompetitive ^DV” value (CYP2E1; pH 7.4) was 1.07 ± 0.04. The “Intramolecular KIE (kH/kD)” value (CYP2C9; human, pH 7.4) was 6.9 and the “Intramolecular KIE (kH/kD)” value (P450cam) was 8.3.
In the case of `[2H]C([2H])([2H])c1ccc(Br)cc1` [Br-d3], the V/K (CYP2E1) was 0.027 min⁻¹ and the Vmax (CYP2E1) was 54.8 nM/min.
With `[2H]Cc1ccc(C[2H])cc1` [CH2D, p-Xylene-α-^2H1-α′-^2H1] the “Intramolecular KIE (kH/kD)” value (CYP2B1) was 6.23, the “Intramolecular KIE (kH/kD)” value (CYP1A2 [4]) was 5.59 (1) and the “Intramolecular KIE (kH/kD)” value (CYP2E1) was 5.45 (5). For the same molecule, the “Intramolecular KIE (kH/kD)” value (CYP2C9) was 5.9 and the “Intramolecular KIE (kH/kD)” value (P450cam) was 6.0.
For `Cc1ccc(C)cc1` [CH3, p-xylene], the “Intermolecular Competitive ^D(V/K)” value (CYP2E1; pH 7.4) was 1.18 ± 0.03, the “Intermolecular Noncompetitive ^D(V/K)” value (CYP2E1; pH 7.4) was 1.19 ± 0.01 and the “Intermolecular Noncompetitive ^DV” value (CYP2E1; pH 7.4) was 1.05 ± 0.03. The “Intramolecular KIE (kH/kD)” value (CYP2E1; pH 7.4) was 5.45 ± 0.05 and the “Benzylic hydroxylation, share of total oxidation / metabolism” value (CYP [3]; depending on the source of CYP) was roughly 95%.
With `Cc1ccc(C#N)cc1` [CN, p-tolunitrile] the “Intramolecular KIE (kH/kD)” value (CYP2B1) was 11.9, the “Intramolecular KIE (kH/kD)” value (CYP1A2 [4]; pH 7.4) was 10.1 (2) and the “Intramolecular KIE (kH/kD)” value (CYP2E1; pH 7.4) was 10.1 (1). For the same molecule, the “Intramolecular KIE (kH/kD)” value (CYP2C9; human, pH 7.4) was 11.1 and the “Intramolecular KIE (kH/kD)” value (P450cam) was 11.6.
With `Cc1ccc(Cl)cc1` [Cl, p-chlorotoluene] the “Intermolecular Competitive ^D(V/K)” value (CYP2B1) was 3.21 ± 0.02, the “Intramolecular KIE (kH/kD)” value (CYP2B1) was 8.1 and 8.06 ± 0.12 and the “Intermolecular Noncompetitive ^DV” value (CYP2E1; pH 7.4) was 1.61 ± 0.01. The “Intramolecular KIE (kH/kD)” value (CYP2C9; human, pH 7.4) was 6.2 and the “Intramolecular KIE (kH/kD)” value (P450cam) was 6.5.
`[2H]C([2H])([2H])c1ccc(Cl)cc1` [Cl-d3] showed a V/K (CYP2E1) of 0.020 min⁻¹ and a Vmax (CYP2E1) of 31.4 nM/min.
For `CCc1ccccc1` [Ethylbenzene], the “Experimental Ratio” value (CYP [2]; Arom/benz) was 0.086.
With `Cc1ccccc1` [H, toluene] the “Intramolecular KIE (kH/kD)” value (CYP2B1) was 7, the “Intramolecular KIE (kH/kD)” value (CYP1A2 [4]; pH 7.4) was 6.1 (4) and the “Intramolecular KIE (kH/kD)” value (CYP2E1; pH 7.4) was 6.1 (1). For the same molecule, the “Isotope effect measured by White and McCarthy” value (CYP [3]) was 2.
For `CCCCCCCC` [Octane], the “Average P value (primary KIE)” value (CYP [3]; Jones et al. 1987) is listed as 7.6 and the “ΔΔG (experimental)” value (CYP [5]) is listed as −3.13.
With `CCCC(CCC)C(=O)O` [Valproate] the “ΔΔG (experimental)” value (CYP [5]) was −2.48.
In the case of `[2H]C([2H])([2H])c1ccccc1OC` [o-Methylanisole-α-^2H3], the “nmol 4M3MPh” value (CYP2B1) was 13* nmol, the “nmol TP” value (CYP2B1) was 17* nmol and the “nmol o-CR” value (CYP2B1) was 2.8* nmol. The “nmol o-MBA” value (CYP2B1) was 0.36* nmol, the “nmol 4M3MPh” value (CYP4B1) was 1.9* nmol and the “nmol TP” value (CYP4B1) was 55 nmol. The “nmol o-CR” value (CYP4B1) was 50* nmol, the “nmol o-MBA” value (CYP4B1) was 3.5* nmol and the “nmol 4M3MPh” value (CYP1A2 [4]) was 11.5* nmol. For the same molecule, the “nmol TP” value (CYP1A2 [4]) was 17.2 nmol, the “nmol o-CR” value (CYP1A2 [4]) was 4.2* nmol and the “nmol o-MBA” value (CYP1A2 [4]) was 1.52* nmol. The “nmol 4M3MPh” value (CYP2E1) was 13* nmol, the “nmol TP” value (CYP2E1) was 19* nmol and the “nmol o-CR” value (CYP2E1) was 4.7* nmol. For the same molecule, the “nmol o-MBA” value (CYP2E1) was 0.99* nmol, the “nmol 4M3MPh” value (CYP2B6) was 3.3 nmol and the “nmol TP” value (CYP2B6) was 22 nmol. For the same molecule, the “nmol o-CR” value (CYP2B6) was 17* nmol, the “nmol o-MBA” value (CYP2B6) was 0.95* nmol and the “nmol TP” value (CYP2C9) was 3.9* nmol. The “nmol o-CR” value (CYP2C9) was 1.4* nmol and the “nmol o-MBA” value (CYP2C9) was 0.7* nmol.
For `[2H]C([2H])([2H])Oc1ccc(C)cc1` [p-Methylanisole-α-^2H3], the “nmol p-CR” value (CYP2B1) was 3.3* nmol, the “nmol p-MBA” value (CYP2B1) was 0.9* nmol and the “nmol total TP” value (CYP2B1) was 4.2* nmol. The “nmol p-CR” value (CYP4B1) was 52* nmol, the “nmol p-MBA” value (CYP4B1) was 48* nmol and the “nmol total TP” value (CYP4B1) was 100* nmol. The Vmax (CYP2E1) was 18.0 nM/min, the “nmol p-CR” value (CYP2E1) was 18.2* nmol and the “nmol p-MBA” value (CYP2E1) was 10.6* nmol. For the same molecule, the “nmol total TP” value (CYP2E1) was 29 nmol, the “nmol p-CR” value (CYP2B6) was 9* nmol and the “nmol p-MBA” value (CYP2B6) was 2.39* nmol. The “nmol total TP” value (CYP2B6) was 11 nmol.
For `[2H]C([2H])([2H])c1ccc(CCl)cc1` [α-Chloromethyl-p-xylene-α′-^2H3], the “nmol TP” value (CYP2B1) was 21.3 nmol, the “nmol p-Alc” value (CYP2B1) was 1.3* nmol and the “nmol p-Ald + TolA” value (CYP2B1) was 20.0* nmol. For the same molecule, the “nmol TP” value (CYP4B1) was 17.0* nmol, the “nmol p-Alc” value (CYP4B1) was 15.2* nmol and the “nmol p-Ald + TolA” value (CYP4B1) was 1.87* nmol. For the same molecule, the “nmol TP” value (CYP1A2 [4]) was 47 nmol, the “nmol p-Alc” value (CYP1A2 [4]) was 1.3* nmol and the “nmol p-Ald + TolA” value (CYP1A2 [4]) was 46 nmol. The “nmol TP” value (CYP2E1) was 31 nmol, the “nmol p-Alc” value (CYP2E1) was 0.78* nmol and the “nmol p-Ald + TolA” value (CYP2E1) was 30 nmol. The “nmol TP” value (CYP2B6) was 14* nmol, the “nmol p-Alc” value (CYP2B6) was 1.82* nmol and the “nmol p-Ald + TolA” value (CYP2B6) was 12* nmol. The “nmol TP” value (CYP2C9) was 1.8* nmol, the “nmol p-Alc” value (CYP2C9) was 0.10* nmol and the “nmol p-Ald + TolA” value (CYP2C9) was 1.7* nmol.
